Reference: patent publication US6737383B1, “Herbicidal oxadiazolidines” (priority 1999, dated 2004)

Key:
sugar beet = experiment: Test B pre/postemergence sugar beet; assay type: in vivo, Beta vulgaris
Outline: (§1)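 Response is a visual 0-to-10 score relative to untreated plants, where 0 means no effect and 10 means complete control, taken twelve to sixteen days after application. Treatments went onto soil at planting and onto foliage of 1- to 4-leaf plants, using a surfactant-containing non-phytotoxic solvent.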

blackgrass = experiment: Test B pre/postemergence blackgrass; assay type: in vivo, Alopecurus myosuroides
Outline: as §1

velvetleaf = experiment: Test B pre/postemergence velvetleaf; assay type: in vivo, Abutilon theophrasti
Outline: as §1

duck salad = experiment: Test B flood test duck salad; assay type: in vivo, Heteranthera limosa; conditions: for Plant response rating, Ducksalad: scale 0 to 10, 0 is no effect, 10 is complete control; for Ducksalad plant response rating: scale of 0 to 10 where 0 is no effect and 10 is complete control
Outline: (§2)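 Plants were grown to the 2-leaf stage before treatment with test chemical, then held in a greenhouse for twelve to sixteen days. Injury was visually rated against untreated controls on a 0–10 scale, where 0 is no effect and 10 is complete control.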

corn = experiment: Test B pre/postemergence corn; assay type: in vivo, Zea mays
Outline: as §1

surinam grass = experiment: Test B pre/postemergence surinam grass; assay type: in vivo, Brachiaria decumbens
Outline: as §1

wheat = experiment: Test B pre/postemergence wheat; assay type: in vivo, Triticum aestivum
Outline: as §1

crabgrass = experiment: Test B pre/postemergence crabgrass; assay type: in vivo, Digitaria sanguinalis
Outline: as §1

morningglory = experiment: Test B pre/postemergence morningglory; assay type: in vivo, Ipomoea hederacea
Outline: as §1

rice = experiment: Test B flood test rice; assay type: in vivo, Oryza sativa
Outline: as §2

purple nutsedge = experiment: Test B pre/postemergence purple nutsedge; assay type: in vivo, Cyperus rotundus
Outline: as §1

smallflower flatsedge = experiment: Test B flood test smallflower flatsedge; assay type: in vivo, Cyperus difformis
Outline: as §2

pigweed = experiment: Test B pre/postemergence pigweed; assay type: in vivo, Amaranthus retroflexus
Outline: as §1

wild oat = experiment: Test B pre/postemergence wild oat; assay type: in vivo, Avena fatua
Outline: as §1

giant foxtail = experiment: Test B pre/postemergence giant foxtail; assay type: in vivo, Setaria faberii
Outline: as §1

rape = experiment: Test B pre/postemergence rape; assay type: in vivo, Brassica napus
Outline: as §1

bedstraw = experiment: Test B pre/postemergence bedstraw; assay type: in vivo, Galium aparine; conditions: Postemergence
Outline: as §1

cocklebur = experiment: Test B pre/postemergence cocklebur; assay type: in vivo, Xanthium strumarium
Outline: as §1

soybean = experiment: Test B pre/postemergence soybean; assay type: in vivo, Glycine max
Outline: as §1

bamyardgrass = experiment: Test B flood test barnyardgrass; assay type: in vivo, Echinochloa crus-galli; conditions: for Plant response rating, Barnyardgrass: scale 0 to 10, 0 is no effect, 10 is complete control; for Barnyardgrass plant response rating: scale of 0 to 10 where 0 is no effect and 10 is complete control
Outline: as §2

[1] = Postemergence, Rate 250 g/ha, scale 0 to 10, 0 is no effect, 10 is complete control
[2] = Postemergence, Rate 500 g/ha, scale of 0 to 10 where 0 is no effect and 10 is complete control
[3] = Preemergence, Rate 62 g/ha, scale 0 to 10 (0 no effect, 10 complete control)
[4] = Preemergence, Rate 125 g/ha, scale of 0 to 10 where 0 is no effect and 10 is complete control
[5] = Preemergence, Rate 250 g/ha, scale 0 to 10, 0 is no effect, 10 is complete control
[6] = Preemergence, Rate 500 g/ha, scale 0 to 10, 0 is no effect, 10 is complete control
[7] = Postemergence, Rate 125 g/ha, scale 0 to 10, 0 is no effect, 10 is complete control
[8] = Preemergence, Rate 250 g/ha, scale of 0 to 10 where 0 is no effect and 10 is complete control
[9] = Rate 62 g/ha, Postemergence, scale of 0 to 10 where 0 is no effect and 10 is complete control
[10] = Postemergence (flood test), Rate 125 g/ha
[11] = Postemergence section (flood test species), Rate 500 g/ha
[12] = Rate 62 g/ha, Postemergence (flood test species)
[13] = flood test species, listed under Postemergence, Rate 250 g/ha
[14] = Postemergence section (flood test species), Rate 500 g/ha, scale of 0 to 10 where 0 is no effect and 10 is complete control
[15] = flood test species, listed under Postemergence, Rate 250 g/ha, scale 0 to 10, 0 is no effect, 10 is complete control

CC(C)N(C(=O)n1oc(=O)n(C2CCOCC2)c1=O)c1ccccc1 [Compound 416]
2: Sugarbeets plant response rating (sugar beet; [2]) | B. signalgrass plant response rating (surinam grass; [9]) | Plant response rating, Wheat (wheat; [3]) | Crabgrass plant response rating (crabgrass; [9]) | Plant response rating, Redroot pigweed (pigweed; [1])
7: Sugarbeets plant response rating (sugar beet; [5]) | Corn plant response rating (corn; [2]) | Plant response rating, B. signalgrass (surinam grass; [3]) | Plant response rating, B. signalgrass (surinam grass; [4]) | B. signalgrass plant response rating (surinam grass; [8]) | Wheat plant response rating (wheat; [2]) | Wheat plant response rating (wheat; [5]) | Plant response rating, Crabgrass (crabgrass; [3]) | Redroot pigweed plant response rating (pigweed; [2]) | Plant response rating, Redroot pigweed (pigweed; [3]) | Wild oats plant response rating (wild oat; [2]) | Plant response rating, Wild oats (wild oat; [4]) | Giant foxtail plant response rating (giant foxtail; [9]) | Plant response rating, Rape (rape; [3]) | Bedstraw plant response rating (bedstraw; Rate 500 g/ha, scale of 0 to 10 where 0 is no effect and 10 is complete control) | Soybean plant response rating (soybean; [2]) | Soybean plant response rating (soybean; [5])
9: Sugarbeets plant response rating (sugar beet; [6]) | Plant response rating, Blackgrass (blackgrass; [7]) | Plant response rating, Blackgrass (blackgrass; [1]) | Blackgrass plant response rating (blackgrass; [2]) | Plant response rating, Blackgrass (blackgrass; [4]) | B. signalgrass plant response rating (surinam grass; [2]) | B. signalgrass plant response rating (surinam grass; Preemergence, Rate 500 g/ha, scale of 0 to 10 where 0 is no effect and 10 is complete control) | Plant response rating, Crabgrass (crabgrass; [1]) | Crabgrass plant response rating (crabgrass; [2]) | Plant response rating, Morningglory (morningglory; [1]) | Morningglory plant response rating (morningglory; [2]) | Plant response rating, Redroot pigweed (pigweed; [4]) | Plant response rating, Giant foxtail (giant foxtail; [1]) | Giant foxtail plant response rating (giant foxtail; [2]) | Plant response rating, Rape (rape; [4]) | Rape plant response rating (rape; [5]) | Soybean plant response rating (soybean; [6])
6: Blackgrass plant response rating (blackgrass; [9]) | Velvetleaf plant response rating (velvetleaf; [2]) | Velvetleaf plant response rating (velvetleaf; [5]) | Corn plant response rating (corn; [6]) | Plant response rating, B. signalgrass (surinam grass; [7]) | Plant response rating, Crabgrass (crabgrass; [7]) | Morningglory plant response rating (morningglory; [5]) | Plant response rating, Wild oats (wild oat; [3]) | Plant response rating, Soybean (soybean; [1])
3: Plant response rating, Sugarbeets (sugar beet; [3]) | Plant response rating, Velvetleaf (velvetleaf; [4]) | Corn plant response rating (corn; [5]) | Nutsedge plant response rating (purple nutsedge; [5]) | Plant response rating, Rape (rape; [1]) | Rape plant response rating (rape; [2]) | Plant response rating, Bedstraw (bedstraw; Rate 125 g/ha, scale 0 to 10, 0 is no effect, 10 is complete control)
5: Plant response rating, Corn (corn; [1]) | Cocklebur plant response rating (cocklebur; [2])
0: Plant response rating, Sugarbeets (sugar beet; [1]) | Plant response rating, Velvetleaf (velvetleaf; [1]) | Plant response rating, Velvetleaf (velvetleaf; [3]) | Plant response rating, Ducksalad (duck salad; [10]) | Ducksalad plant response rating (duck salad; [11]) | Ducksalad plant response rating (duck salad; [12]) | Plant response rating, Ducksalad (duck salad; [13]) | Plant response rating, Corn (corn; [7]) | Plant response rating, Corn (corn; [3]) | Plant response rating, Corn (corn; [4]) | Corn plant response rating (corn; [9]) | Plant response rating, Morningglory (morningglory; [3]) | Rice plant response rating (rice; [14]) | Plant response rating, Rice (rice; [15]) | Plant response rating, Nutsedge (purple nutsedge; [1]) | Nutsedge plant response rating (purple nutsedge; [2]) | Plant response rating, Nutsedge (purple nutsedge; [3]) | Plant response rating, Nutsedge (purple nutsedge; [4]) | S. Flatsedge plant response rating (smallflower flatsedge; [14]) | Plant response rating, S. Flatsedge (smallflower flatsedge; [15]) | Plant response rating, Cocklebur (cocklebur; [7]) | Plant response rating, Cocklebur (cocklebur; [1]) | Plant response rating, Cocklebur (cocklebur; [3]) | Plant response rating, Cocklebur (cocklebur; [4]) | Cocklebur plant response rating (cocklebur; [5]) | Cocklebur plant response rating (cocklebur; [9]) | Plant response rating, Soybean (soybean; [3]) | Plant response rating, Barnyardgrass (bamyardgrass; [10]) | Barnyardgrass plant response rating (bamyardgrass; [11]) | Barnyardgrass plant response rating (bamyardgrass; [12]) | Plant response rating, Barnyardgrass (bamyardgrass; [13])
8: Plant response rating, Blackgrass (blackgrass; [3]) | Velvetleaf plant response rating (velvetleaf; [6]) | Plant response rating, B. signalgrass (surinam grass; [1]) | Morningglory plant response rating (morningglory; [6]) | Wild oats plant response rating (wild oat; [5]) | Plant response rating, Giant foxtail (giant foxtail; [7]) | Plant response rating, Giant foxtail (giant foxtail; [3])
10: Blackgrass plant response rating (blackgrass; [8]) | Blackgrass plant response rating (blackgrass; [6]) | Wheat plant response rating (wheat; [6]) | Plant response rating, Crabgrass (crabgrass; [4]) | Crabgrass plant response rating (crabgrass; [5]) | Crabgrass plant response rating (crabgrass; [6]) | Redroot pigweed plant response rating (pigweed; [5]) | Redroot pigweed plant response rating (pigweed; [6]) | Wild oats plant response rating (wild oat; [6]) | Plant response rating, Giant foxtail (giant foxtail; [4]) | Giant foxtail plant response rating (giant foxtail; [5]) | Giant foxtail plant response rating (giant foxtail; [6]) | Rape plant response rating (rape; [6])
4: Plant response rating, Sugarbeets (sugar beet; [4]) | Plant response rating, Wheat (wheat; [4]) | Plant response rating, Morningglory (morningglory; [4]) | Nutsedge plant response rating (purple nutsedge; [6]) | Cocklebur plant response rating (cocklebur; [6]) | Plant response rating, Soybean (soybean; [4])
